Legend:
[1] = target: Cholinesterase (Equus caballus) (UniProt P81908); conditions: at 2 mg/mL
Description: Inhibition of horse BChE at 2 mg/ml by Ellman's method

[2] = target: Acetylcholinesterase (Electrophorus electricus) (UniProt O42275); conditions: at 2 mg/mL
Chain of Acetylcholinesterase (Electrophorus electricus) (O42275 24-633 limits assumed): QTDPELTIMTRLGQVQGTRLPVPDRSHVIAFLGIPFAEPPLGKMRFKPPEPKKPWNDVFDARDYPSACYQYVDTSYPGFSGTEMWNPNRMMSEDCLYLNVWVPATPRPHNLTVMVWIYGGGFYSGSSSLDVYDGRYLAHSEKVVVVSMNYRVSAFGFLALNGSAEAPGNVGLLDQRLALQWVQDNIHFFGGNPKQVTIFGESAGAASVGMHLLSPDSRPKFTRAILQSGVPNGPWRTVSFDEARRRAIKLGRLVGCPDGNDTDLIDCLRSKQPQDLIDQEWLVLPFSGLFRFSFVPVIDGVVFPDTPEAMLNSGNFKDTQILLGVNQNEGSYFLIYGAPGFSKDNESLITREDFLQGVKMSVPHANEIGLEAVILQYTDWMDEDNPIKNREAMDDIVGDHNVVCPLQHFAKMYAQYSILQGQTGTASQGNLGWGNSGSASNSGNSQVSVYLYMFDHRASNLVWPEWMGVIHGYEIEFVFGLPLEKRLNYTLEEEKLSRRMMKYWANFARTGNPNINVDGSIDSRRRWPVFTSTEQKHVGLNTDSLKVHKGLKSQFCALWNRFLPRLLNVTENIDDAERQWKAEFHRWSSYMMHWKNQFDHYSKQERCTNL
Description: Inhibition of electric eel AChE at 2 mg/ml by Ellman's method

Chain of Cholinesterase (Equus caballus) (P81908 whole entry): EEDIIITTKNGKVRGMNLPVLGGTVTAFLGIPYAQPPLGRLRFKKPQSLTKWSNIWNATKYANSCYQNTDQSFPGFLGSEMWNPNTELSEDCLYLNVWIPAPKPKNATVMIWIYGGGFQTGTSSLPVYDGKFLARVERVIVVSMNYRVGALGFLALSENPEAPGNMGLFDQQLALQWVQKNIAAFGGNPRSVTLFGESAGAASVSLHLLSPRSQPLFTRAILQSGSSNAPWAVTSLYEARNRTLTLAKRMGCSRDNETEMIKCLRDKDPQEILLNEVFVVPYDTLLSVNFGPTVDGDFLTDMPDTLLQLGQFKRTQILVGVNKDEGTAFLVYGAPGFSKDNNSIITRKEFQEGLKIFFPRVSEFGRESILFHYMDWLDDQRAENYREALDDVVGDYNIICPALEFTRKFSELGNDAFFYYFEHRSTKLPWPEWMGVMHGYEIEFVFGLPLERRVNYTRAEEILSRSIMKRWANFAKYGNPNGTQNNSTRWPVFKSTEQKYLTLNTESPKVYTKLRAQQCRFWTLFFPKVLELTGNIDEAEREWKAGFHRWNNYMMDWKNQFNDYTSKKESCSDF

Compound | inhibition [1] [%] | inhibition [2] [%]
C/C=C1\C[C@@H](C)[C@](O)(CO)C(=O)OCC2=CCN3CC[C@@H](OC1=O)[C@@H]23 | -3.05 | 4.15
CC1=CC(=O)C2=C(C)CC[C@@H]3[C@H](OC(=O)[C@H]3C)[C@@H]12 | 0.28 | -3.63
O=C1C[C@@H](c2ccccc2)Oc2cc(O)cc(O)c21 | 1.45 | 27.3
COc1cc(O)c(C(=O)/C=C/c2ccccc2)c(OC)c1 | 4.56 | 27.1
CCCCC1OC(=O)C2=CCCCC21 (configuration not stated) | 4.12 | -0.57
C=C1CC[C@@H]2[C@](C)(CO)[C@H](O)CC[C@@]2(C)[C@@H]1C/C=C1/C(=O)OC[C@H]1O | 8.56 | 25.1
C[C@H]1[C@H](C)CC[C@]2(C(=O)O)CC[C@]3(C)C(=CC[C@@H]4[C@@]5(C)C[C@@H](O)[C@H](O)[C@@](C)(CO)[C@@H]5[C@H](O)C[C@]43C)[C@H]12 | -7.93 | -1.33
c1cc2c(cc1[C@H]1OC[C@@H]3[C@H]1CO[C@H]3c1ccc3c(c1)OCO3)OCO2 | -3.5 | 4.7
CO[C@H](C(=O)[C@@H](O)[C@@H](C)O)[C@@H]1Cc2cc3cc(O[C@H]4C[C@@H](O[C@H]5C[C@@H](O)[C@H](O)[C@@H](C)O5)[C@@H](O)[C@@H](C)O4)c(C)c(O)c3c(O)c2C(=O)[C@H]1O[C@H]1C[C@@H](O[C@H]2C[C@@H](O[C@H]3C[C@](C)(O)[C@H](O)[C@@H](C)O3)[C@H](O)[C@@H](C)O2)[C@H](O)[C@@H](O)O1 | 6.61 | -3.51
CC1(C)[C@@H](O)CC[C@]2(C)[C@H]3C(=O)C=C4[C@@H]5C[C@@](C)(C(=O)O)CC[C@]5(C)CC[C@@]4(C)[C@]3(C)CC[C@@H]12 | 4.46 | -3.12
CN1C(=O)C[C@H](C(=O)O)[C@H]1c1cccnc1 (relative stereo) | -4.39 | -2.93
C[C@H]1C(=O)CC[C@@H]2[C@]1(C)CC[C@H]1[C@@]2(C)CC[C@@]2(C)[C@@H]3CC(C)(C)CC[C@]3(C)CC[C@]12C | -0.57 | -3.69
C[C@H]1CC[C@@]2(OC1)O[C@H]1C[C@H]3[C@@H]4CC[C@@H]5C[C@@H](O)CC[C@]5(C)[C@H]4CC[C@]3(C)[C@H]1[C@@H]2C | -2.96 | -3.09
CO[C@H]1C[C@@H]2CC[C@@H](C)[C@@](O)(O2)C(=O)C(=O)N2CCCC[C@H]2C(=O)O[C@H]([C@H](C)C[C@@H]2CC[C@@H](O)[C@H](OC)C2)CC(=O)[C@H](C)/C=C(\C)[C@@H](O)[C@@H](OC)C(=O)[C@H](C)C[C@H](C)/C=C/C=C/C=C/1C | 4.03 | 18.7
C=C1[C@H]2C[C@@]3([C@@H]1O)[C@@H](CC2=O)[C@]12[C@@H]4C[C@H]3[C@H]1N(CC)C[C@]4(C)CC[C@@H]2O | 1.01 | 26.3
CCn1cc(C(=O)O)c(=O)c2ccc(C)nc21 | -8.73 | 0.82
COc1ccc(-c2oc3cc(O)cc(O)c3c(=O)c2O)cc1O | 3.18 | 25.9
COC1=C[C@@H]2[C@@H]3Cc4ccc(OC)c(O)c4[C@]2(CCN3C)CC1=O | 5.14 | 4.63
COc1cc(-c2oc3cc(O)ccc3c(=O)c2O)ccc1O | 12.8 | 3.26
C=C1[C@@H](C)[C@H]2[C@H](Cc3ccccc3)NC(=O)[C@]23[C@H](OC(C)=O)/C=C/[C@@](C)(O)C(=O)[C@@H](C)C/C=C/[C@H]3[C@@H]1O | 3.92 | -2.15
CC[C@]1(O)C[C@H]2CN(CCc3c([nH]c4ccccc34)[C@@](C(=O)OC)(c3cc4c(cc3OC)N(C=O)[C@H]3[C@@](O)(C(=O)OC)[C@H](OC(C)=O)[C@]5(CC)C=CCN6CC[C@]43[C@@H]65)C2)C1 | 2.81 | 10.9

Compound | inhibition [1] [%] | inhibition [2] [%]
O=[N+]([O-])c1ncc[nH]1 | 14.4 | 4.77
CC(C)=CCC[C@]1(C)C=Cc2c(O)c3c(c(CC=C(C)C)c2O1)O[C@]12C(=C[C@@H]4C[C@H]1C(C)(C)O[C@@]2(C/C=C(/C)C(=O)O)C4=O)C3=O | 8.47 | 1.17
CCCCCCCCCCCCCC[C@@H](O)[C@@H](O)[C@@H](N)CO | 7.46 | 24.4
C=C[C@](C)(O)CC[C@@H]1[C@@]2(C)CCCC(C)(C)[C@@H]2CC[C@@]1(C)O | -2.61 | 3.08
CN(C)c1ccc(O)c2c1C[C@H]1C[C@H]3[C@H](N(C)C)C(O)=C(C(N)=O)C(=O)[C@@]3(O)C(O)=C1C2=O | -8.62 | -0.24
COc1cc2c(cc1OC)[C@H]1[C@@H](C)c3ccc(OC)c(OC)c3CN1CC2 | -0.53 | 13.9
O=c1cc(-c2ccc(O)c(O)c2)oc2cc(O)cc(O)c12 | 0.42 | 13.6
CC[C@H]1CC[C@@]2(C)CN(CC)[C@@H]3[C@@H]4[C@@H](O)[C@H]2[C@@]13[C@@H]1C[C@@H]2CC[C@@]4(O)[C@H]1C(=O)O2 | -3.58 | 22.5
C[C@@H]1O[C@@H](O[C@H]2C[C@@H](O)[C@]3(CO)[C@H]4[C@H](O)C[C@]5(C)[C@@H](C6=CC(=O)OC6)CC[C@]5(O)[C@@H]4CC[C@]3(O)C2)[C@H](O)[C@H](O)[C@H]1O | 5.11 | -3.72
O[C@H]1[C@H]2[C@H](O)CCCN2C[C@H]1O | -2.04 | 5.09
CCCCC[C@H](O)/C=C/[C@H]1[C@H](O)CC(=O)[C@@H]1C/C=C\CCCC(=O)O | -2.38 | 14.8
CN1CCc2cc3c(c4c2[C@H]1Cc1ccccc1-4)OCO3 | 25.9 | 34.2
CO[C@H]1C=C2CCN(C)[C@H]2[C@@H]2c3cc4c(cc3C(=O)O[C@@H]21)OCO4 | -2.26 | 25.8
C[C@]12CC[C@H](O)C[C@H]1CC[C@@H]1[C@@H]2CC[C@]2(C)[C@@H](C3=CC(=O)OC3)[C@@H](O)C[C@]12O | 1.77 | -1.84
C=C1C(=O)[C@]23[C@H](O)[C@H]1CC[C@H]2[C@@]12CO[C@]3(O)[C@@H](O)[C@@H]1C(C)(C)CC[C@@H]2O | 0.03 | 24.7
COc1ccc(-c2cc(=O)c3c(OC)c(OC)c(OC)cc3o2)cc1OC | 17.1 | 29.6
COc1cc([C@@H]2c3cc4c(cc3[C@@H](O)[C@H]3COC(=O)[C@H]23)OCO4)cc(OC)c1O | -7.02 | 6.34
CC1=C(/C=C/C(C)=C\C=C\C(C)=C\C(=O)O)C(C)(C)CCC1 | -2.78 | 14.3
CO[C@H]1[C@@H](O)[C@@H](C)O[C@H](O[C@H]2[C@H](Oc3cccc4c(O)c5c(=O)oc6ccc(C)c7c(=O)oc(c34)c5c67)O[C@H](C)[C@H](O)[C@@H]2O)[C@@H]1O | 7.94 | 17.5
CC(=O)N[C@H]1[C@@H](O[C@@H]2O[C@H](C[C@@H](O)[C@@H]3O[C@H](n4ccc(=O)[nH]c4=O)[C@@H](O)[C@H]3O)[C@H](O)[C@H](O)[C@H]2NC(=O)/C=C/CCCCCCCCCCC(C)C)O[C@H](CO)[C@@H](O)[C@@H]1O | 1.57 | 14.2
COc1cc2c(c(OC)c1OC)-c1ccc(OC)c(=O)cc1[C@@H](NC(C)=O)CC2 | 0.1 | 0.14

Compound | inhibition [1] [%] | inhibition [2] [%]
CC(=O)OC[C@]12CCC(C)=C[C@H]1O[C@@H]1[C@H](O)[C@@H](OC(C)=O)[C@@]2(C)[C@]12CO2 | 12.3 | 23.8
COc1c2occc2cc2ccc(=O)oc12 | 8.34 | 4.4
COc1cc2c(c(OC)c1OC)-c1ccc(OC)c(=O)cc1[C@@H](NC=O)CC2 | -0.59 | 23.9
CC[C@H](C)C(=O)O[C@H]1CCC=C2C=C[C@H](C)[C@H](CC[C@@H]3C[C@@H](O)CC(=O)O3)[C@H]21 | 7.39 | -9.46
COc1cc(C(=O)O[C@H]2C/C(C)=C/CC/C(C)=C/[C@H](O)[C@@H]2C(C)C)ccc1O | 3.49 | 23.6
COc1cc([C@@H]2c3cc4c(cc3[C@@H](O[C@@H]3O[C@@H]5CO[C@@H](C)O[C@H]5[C@H](O)[C@H]3O)[C@H]3COC(=O)[C@H]23)OCO4)cc(OC)c1O | -5.72 | -9.19
O=c1cc(-c2ccc(O)cc2)oc2cc(O)c([C@@H]3O[C@H](CO)[C@@H](O)[C@H](O)[C@H]3O)c(O)c12 | 1.98 | 20.7
CC(C)[C@@]1(NC(=O)[C@@H]2C[C@@H]3c4cccc5[nH]cc(c45)C[C@H]3N(C)C2)O[C@@]2(O)[C@@H]3CCCN3C(=O)[C@H](Cc3ccccc3)N2C1=O | 0.35 | -1.54
COc1cc2oc(=O)ccc2cc1O | 3.87 | 28.1
COc1cc2c(c(OC)c1OC)-c1c(cc(OC)c(OC)c1OC)C[C@H](C)[C@H](C)C2 | -4.82 | -1.7
COC(=O)/C(=C1/OC(=O)C(c2ccccc2)=C1O)c1ccccc1 | 0.35 | 4.9
CC1(C)CCC[C@]2(C)[C@H]3CC(=O)O[C@]3(C)CC[C@@H]12 | -1.03 | -6.49
CCCCCCCCCCC1=C(C)C(=O)C(OC)=C(OC)C1=O | 0.01 | 21.8
C=C1C(=O)O[C@@H]2C3O[C@]3(C)CC/C=C(\C)CC[C@@H]12 (some centres not stated) | 14 | -5.29
CC1=C(O)C(=O)C=C2C1=CC=C1[C@@]2(C)CC[C@@]2(C)[C@@H]3C[C@](C)(C(=O)O)CC[C@]3(C)CC[C@]12C | 1.01 | 22.1
C[C@@H]1O[C@@H](OC[C@H]2O[C@@H](Oc3cc(O)c4c(c3)O[C@H](c3ccc(O)c(O)c3)CC4=O)[C@H](O)[C@@H](O)[C@@H]2O)[C@H](O)[C@H](O)[C@H]1O | 1.98 | 21.5
COC1=CC(=O)C[C@@H](C)[C@]12Oc1c(Cl)c(OC)cc(OC)c1C2=O | -4.49 | -8.73
COc1ccc([C@@H]2CC(=O)c3c(O)cc(O[C@@H]4O[C@H](CO)[C@@H](O)[C@H](O)[C@H]4O[C@@H]4O[C@@H](C)[C@H](O)[C@@H](O)[C@H]4O)cc3O2)cc1O | 0.1 | 4.86
O=C(CCc1ccc(O)cc1)c1c(O)cc(O)cc1O | 17 | -6.41

Source: ChEMBL document CHEMBL2163249, “Exploration of natural compounds as sources of new bifunctional scaffolds targeting cholinesterases and beta amyloid aggregation: the case of chelerythrine” (Bioorg Med Chem, 2012)
